For orientation: IC50 means the concentration at which inhibition is half-maximal. A word on the inhibition: it is how much of the control response was suppressed.

Calls of active or inactive are those of the source. No cut-off for these calls is given here.

We go through four compounds from ChEMBL document CHEMBL1153984, “Ganoderic acid DM: anti-androgenic osteoclastogenesis inhibitor” (Bioorg Med Chem Lett, 2009).

The subject of data set [1] is PC-3. Nature of the data set: Antiproliferative activity against human PC3 cells after 3 days by NR assay. The data set is classed as functional, cell-based.
Data set [2] can be described thus: (§1) Inhibition of 5-alpha-reductase in rat liver microsome assessed as conversion of [14C] testosterone to [14C] dihydrotestosterone. The data set is classed as microsomes. On the technique in general: Liver microsomes are vesicles of endoplasmic reticulum, rich in cytochrome P450 enzymes.
Data set [3] relates to PC-3. Nature of the data set: Antiproliferative activity against human PC3 cells at 12.5 to 50 uM after 3 days by NR assay. The data set is classed as functional, cell-based.
For data set [4], the system named is LNCaP. Nature of the data set: Growth inhibition against dihydrotestosterone-induced human LNCAP cell proliferation assessed as decrease in cell viability after 3 dayssby NR assay. The data set is classed as functional, cell-based.
Data set [5] concerns LNCaP. Nature of the data set: Growth inhibition against testosterone-induced human LNCAP cell proliferation assessed as decrease in cell viability after 3 dayssby NR assay. The data set is classed as functional, cell-based.
Data set [6] in a line: Inhibition of osteoclastogenesis in RANKL-stimulated mouse RAW264 cells at 12.5 uM after 3 days by TRAP assay. The conditions noted are these: RAW264.7, 72 h. The data set is classed as functional.
In a further data set the test system is RAW264. Nature of the data set: Inhibition of osteoclastogenesis in RANKL-stimulated mouse RAW264 cells at 25 uM after 3 days by TRAP assay. The data set is classed as functional, cell-based.
Data set [7] is described as follows: Cytotoxicity against mouse RAW264 cells assessed as viable cells at 25 uM after 3 days by WST1 assay. The conditions noted are these: read-out: Activity. The data set is classed as cell-based.
Data set [8] has as its target T1, Androgen receptor (Homo sapiens) (UniProt P10275).
T1 sequence (whole entry): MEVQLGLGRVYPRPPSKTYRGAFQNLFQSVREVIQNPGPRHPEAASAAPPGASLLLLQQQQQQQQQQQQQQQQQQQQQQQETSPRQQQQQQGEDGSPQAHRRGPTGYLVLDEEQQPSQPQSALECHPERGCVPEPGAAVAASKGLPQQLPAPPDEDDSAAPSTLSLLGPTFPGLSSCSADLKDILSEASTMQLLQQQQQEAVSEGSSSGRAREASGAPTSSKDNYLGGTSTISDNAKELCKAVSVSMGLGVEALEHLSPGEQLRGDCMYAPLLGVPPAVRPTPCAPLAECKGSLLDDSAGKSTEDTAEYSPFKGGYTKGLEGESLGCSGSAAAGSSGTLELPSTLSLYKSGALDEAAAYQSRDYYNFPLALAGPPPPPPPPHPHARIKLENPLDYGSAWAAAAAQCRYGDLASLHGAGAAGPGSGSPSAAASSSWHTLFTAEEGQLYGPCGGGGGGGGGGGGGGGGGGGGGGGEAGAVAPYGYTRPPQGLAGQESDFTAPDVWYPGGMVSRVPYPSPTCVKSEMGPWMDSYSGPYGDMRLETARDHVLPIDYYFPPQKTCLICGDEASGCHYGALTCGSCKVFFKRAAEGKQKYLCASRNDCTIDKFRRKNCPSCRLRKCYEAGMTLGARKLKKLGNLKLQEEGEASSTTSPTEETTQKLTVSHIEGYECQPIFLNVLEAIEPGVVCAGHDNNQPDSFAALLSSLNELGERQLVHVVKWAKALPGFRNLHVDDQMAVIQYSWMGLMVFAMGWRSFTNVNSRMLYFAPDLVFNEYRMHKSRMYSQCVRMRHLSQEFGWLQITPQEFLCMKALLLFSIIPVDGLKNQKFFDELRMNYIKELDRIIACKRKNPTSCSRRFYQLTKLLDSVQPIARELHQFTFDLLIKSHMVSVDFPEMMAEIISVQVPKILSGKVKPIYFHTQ
Nature of the data set: Inhibition of DHT binding to human recombinant androgen receptor ligand binding domain at 15 uM by fluorescence polarization. Also on record: scale not given: the % may be the effect or the level left.

Data set [9] is described as follows: Cytotoxicity against mouse RAW264 cells assessed as cell number at 12.5 uM after 3 days by WST1 assay. The data set is classed as cell-based. The settings on record: raw264, 72 h. Background: Formazan colour is commonly taken as a measure of viable cells.
Data set [10] relates to LNCaP. Nature of the data set: Growth inhibition of human LNCAP cells assessed as decrease in cell viability after 3 days by NR assay. The data set is classed as functional, cell-based.
For a further data set, the species on record is Rattus norvegicus. The description is as §1. The data set is classed as microsomes.

Take `C/C(=C\CC[C@@H](C)[C@H]1CC[C@@]2(C)C3=CC[C@H]4C(C)(C)[C@@H](O)CC[C@]4(C)C3=CC[C@]12C)CO`: in the data set with PC-3 [1], the result was inactive.

Consider `CC(C)(C)NC(=O)[C@H]1CC[C@H]2[C@@H]3CC[C@H]4NC(=O)C=C[C@]4(C)[C@H]3CC[C@]12C` [FINASTERIDE], for which the IC50 in data set [2] stood at 0.73 µM.

In the case of `C/C(=C/CC[C@@H](C)[C@H]1CC[C@@]2(C)C3=C(CC[C@]12C)[C@@]1(C)CCC(=O)C(C)(C)[C@@H]1CC3=O)C(=O)O` [GANODERIC ACID DM], the result in the data set on PC-3 [3] was Active. The Activity result in the data set with LNCaP [4] is “Dose-dependent effect”; in the data set on LNCaP [5], “Dose-dependent effect”; in data set [8], 50%; in [9], “Non-toxic”; with LNCaP [10], “Dose-dependent effect”; in the data set filed under Rattus norvegicus, “Dose-dependent effect”. In [6], this compound returned an inhibition at 12.5 µM of 40%. In the data set on RAW264, the result was inactive. Also, the viability at 72 h, 25 µM in data set [7] is 72%. Besides, the IC50 in [2] was 10.6 µM.

Take `CC/C=C\C/C=C\C/C=C\CCCCCCCC(=O)O` [LINOLENIC ACID]: in data set [2], the IC50 came out at 116 µM.
